According to patent US20200207734A1, “HETEROCYCLIC COMPOUND AND USE THEREOF” (Takeda Pharmaceutical Company Limited, priority 2017, published 2020):

Target: T1, human orexin type 2 receptor (Homo sapiens, UniProt O43614)
T1 construct: human orexin type 2 receptor cDNA was inserted into pcDNA3.1(+) plasmid vector (Invitrogen); expressed in transfected cells
T1 sequence (O43614 1-444): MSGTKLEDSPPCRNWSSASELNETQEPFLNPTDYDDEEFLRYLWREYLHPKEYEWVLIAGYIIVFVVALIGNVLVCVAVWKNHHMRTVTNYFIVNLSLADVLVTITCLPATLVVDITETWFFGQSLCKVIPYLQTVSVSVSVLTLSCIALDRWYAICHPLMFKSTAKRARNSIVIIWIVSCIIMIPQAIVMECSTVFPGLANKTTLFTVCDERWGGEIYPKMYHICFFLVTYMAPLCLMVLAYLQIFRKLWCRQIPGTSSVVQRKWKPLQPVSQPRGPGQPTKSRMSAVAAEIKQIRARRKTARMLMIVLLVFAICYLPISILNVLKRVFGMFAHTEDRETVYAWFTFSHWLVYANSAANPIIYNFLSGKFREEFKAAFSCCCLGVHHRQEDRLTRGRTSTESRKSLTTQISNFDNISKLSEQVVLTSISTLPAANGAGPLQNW
Assay: Measurement of orexin type 2 receptor agonist activity (calcium fluorescence, CHO cells expressing hOX2R)
Assay type: cell-based
Conditions: test compound 3 μM; CHO cells expressing human OX2 receptor; DMSO = 0%, orexin A (human) = 100%
Description: To obtain a cell clone stably expressing human orexin type 2 receptor, human orexin type 2 receptor cDNA was inserted into pcDNA3.1(+) plasmid vector (Invitrogen), and a plasmid DNA for expression of human orexin type 2 receptor (pcDNA3.1(+)/hOX2R) was cloned. The plasmid DNA was introduced into CHO-dhfr cell by an electroporation method, and human orexin type 2 receptor expressing clone cells were obtained by limiting dilution method by using G418 drug resistance as a selection marker.
CHO cells forcibly expressing human OX2 receptor were seeded in each well of 384 well black transparent bottom plate (BD Falcon) at 7,500 cells/well, and cultured for one day in a 5% CO2 incubator at 37° C. After removal of the medium in the cell plate, assay buffer A containing a calcium indicator (HBSS (Thermo Fisher Scientific), 20 mM HEPES (Thermo Fisher Scientific), 0.1% BSA (Wako Pure Chemical Industries, Ltd. or Sigma-Aldrich), 2.5 μg/mL Fluo-4 AM (DOJINDO Chemical), 0.08% Pluronic F127 (DOJINDO Chemical), 1.25 mM probenecid (DOJINDO Chemical)) was added at 30 μL/well. The plate was stood for 30 min in a 5% CO2 incubator at 37° C., and further stood at room temperature for 30 min. A test compound prepared by diluting with assay buffer B (HBSS, 20 mM HEPES, 0.1% BSA) was added at 10 μL/well, and the fluorescence value was measured by FDSSμCELL (Hamamatsu Photonics K.K.) every one sec for 1 min, and thereafter every two sec for 1 min 40 sec. The activity (%) of the test compound was calculated assuming that variation in the fluorescence value when DMSO was added instead of the test compound was 0%, and variation in the fluorescence value when orexin A (human) (PEPTIDE INSTITUTE, INC.) was added at the final concentration of 10 nM was 100%.

OX2R agonist activity (3 μM, %) [%] | SMILES
104 | CC(C)OC(=O)N1CC[C@H](NS(C)(=O)=O)[C@@H]1Cc1cccc(-c2ccccc2)c1 (relative stereo) [Example 74, isopropyl cis-2-(biphenyl-3-ylmethyl)-3-((methylsulfonyl)amino)pyrrolidine-1-carboxylate]
98 | CCOC(=O)N1CCC[C@H](NS(C)(=O)=O)[C@@H]1Cc1cccc(-c2ccccc2)c1 (relative stereo) [Example 29, ethyl cis-2-(biphenyl-3-ylmethyl)-3-((methylsulfonyl)amino)piperidine-1-carboxylate]
101 | CS(=O)(=O)N[C@H]1CCN(C(=O)C2CCC2)[C@H]1Cc1csc(-c2cccc(F)c2)n1 (relative stereo) [Example 254, N-(cis-1-(cyclobutylcarbonyl)-2-((2-(3-fluorophenyl)-1,3-thiazol-4-yl)methyl)pyrrolidin-3-yl)methanesulfonamide]
97 | CC(C)OC(=O)N1CCC[C@H](NS(C)(=O)=O)[C@@H]1Cc1cccc(-c2ccccc2)c1 (relative stereo) [Example 50, isopropyl cis-2-(biphenyl-3-ylmethyl)-3-((methylsulfonyl)amino)piperidine-1-carboxylate]
99 | CC(C)(C)C(=O)N1CC[C@H](NS(C)(=O)=O)[C@@H]1Cc1cccc(-c2cccc(F)c2)c1F [Example 349, N-((2S,3S)-2-((2,3′-difluorobiphenyl-3-yl)methyl)-1-(2,2-dimethylpropanoyl)pyrrolidin-3-yl)methanesulfonamide]
107 | CC1CCN1C(=O)N1CC[C@H](NS(C)(=O)=O)[C@@H]1Cc1cccc(-c2cccc(F)c2)c1 (stereo partly drawn) [Example 343, N-((2S,3S)-2-((3′-fluorobiphenyl-3-yl)methyl)-1-((2-methylazetidin-1-yl)carbonyl)pyrrolidin-3-yl)methanesulfonamide]
100 | CS(=O)(=O)N[C@H]1CCN(C(=O)N2CCC2)[C@H]1Cc1cccc(-c2cccc(F)c2)c1 [Example 313, N-((2S,3S)-1-(azetidin-1-ylcarbonyl)-2-((3′-fluorobiphenyl-3-yl)methyl)pyrrolidin-3-yl)methanesulfonamide]
70 | CC(C)OC(=O)N1CCC[C@H](NS(C)(=O)=O)[C@@H]1CC1CCCN(c2ccccc2)C1 (relative stereo) [Example 214, isopropyl cis-3-((methylsulfonyl)amino)-2-((1-phenylpiperidin-3-yl)methyl)piperidine-1-carboxylate]
100 | CS(=O)(=O)N[C@H]1CCN(C(=O)C23CC(C2)C3)[C@H]1Cc1cccc(-c2cccc(F)c2)c1 [Example 306, N-((2S,3S)-1-(bicyclo[1.1.1]pent-1-ylcarbonyl)-2-((3′-fluorobiphenyl-3-yl)methyl)pyrrolidin-3-yl)methanesulfonamide]
24 | CCNC(=O)N1CCC[C@H](NS(C)(=O)=O)[C@@H]1Cc1ccc(Oc2ccccc2)cc1 (relative stereo) [Example 63, cis-N-ethyl-3-((methylsulfonyl)amino)-2-(4-phenoxybenzyl)piperidine-1-carboxamide]
107 | CS(=O)(=O)N[C@H]1CCN(C(=O)C2(C#N)CCC2)[C@H]1Cc1cccc(-c2cccc(F)c2)c1 [Example 346, N-((2S,3S)-1-((1-cyanocyclobutyl)carbonyl)-2-((3′-fluorobiphenyl-3-yl)methyl)pyrrolidin-3-yl)methanesulfonamide]
99 | CCS(=O)(=O)N[C@H]1CCN(C(=O)C(C)(C)O)[C@H]1Cc1cccc(-c2cc(F)cc(Cl)c2)c1F [Example 437, N-((2S,3S)-2-((3′-chloro-2,5′-difluorobiphenyl-3-yl)methyl)-1-(2-hydroxy-2-methylpropanoyl)pyrrolidin-3-yl)ethanesulfonamide]
101 | CCNC(=O)N1CCC[C@H](NS(C)(=O)=O)[C@@H]1Cc1cccc(-c2ccccc2)c1 (relative stereo) [Example 3, cis-2-(biphenyl-3-ylmethyl)-N-ethyl-3-((methylsulfonyl)amino)piperidine-1-carboxamide]
102 | CC(C)(O)C(=O)N1CC[C@H](NS(C)(=O)=O)[C@@H]1Cc1cccc(-c2cc(F)cc(Cl)c2)c1F [Example 428, N-((2S,3S)-2-((3′-chloro-2,5′-difluorobiphenyl-3-yl)methyl)-1-(2-hydroxy-2-methylpropanoyl)pyrrolidin-3-yl)methanesulfonamide]
91 | CCNC(=O)N1CCC[C@H](NS(C)(=O)=O)[C@@H]1Cc1cccc(Oc2ccccc2)c1 (relative stereo) [Example 10, cis-N-ethyl-3-((methylsulfonyl)amino)-2-(3-phenoxybenzyl)piperidine-1-carboxamide]
93 | CCNC(=O)N1CCC[C@H](NS(C)(=O)=O)[C@@H]1Cc1ccccc1Oc1ccccc1 (relative stereo) [Example 62, cis-N-ethyl-3-((methylsulfonyl)amino)-2-(2-phenoxybenzyl)piperidine-1-carboxamide]
95 | CS(=O)(=O)N[C@H]1CCN(C(=O)C2CCC2)[C@H]1Cc1ccc(F)c(-c2ccccc2)c1 (relative stereo) [Example 303, N-(cis-1-(cyclobutylcarbonyl)-2-((6-fluorobiphenyl-3-yl)methyl)pyrrolidin-3-yl)methanesulfonamide]
90 | CCNC(=O)N1CCC[C@H](NS(C)(=O)=O)[C@@H]1Cc1cccc(Cc2cccc(C)c2)c1 (relative stereo) [Example 2, cis-N-ethyl-2-(3-(3-methylbenzyl)benzyl)-3-((methylsulfonyl)amino)piperidine-1-carboxamide]
80 | COC(=O)N1CCC[C@H](NS(C)(=O)=O)[C@@H]1Cc1cccc(-c2ccccc2)c1 (relative stereo) [Example 11, methyl cis-2-(biphenyl-3-ylmethyl)-3-((methylsulfonyl)amino)piperidine-1-carboxylate]
103 | Cc1cccc(-c2cccc(C[C@H]3[C@@H](NS(C)(=O)=O)CCN3C(=O)C3CCC3)c2)c1 [Example 311, N-((2S,3S)-1-(cyclobutylcarbonyl)-2-((3′-methylbiphenyl-3-yl)methyl)pyrrolidin-3-yl)methanesulfonamide]
107 | CS(=O)(=O)N[C@H]1CCN(C(=O)C2(O)CCC2)[C@H]1Cc1cccc(-c2cccc(F)c2)c1 [Example 308, N-((2S,3S)-2-((3′-fluorobiphenyl-3-yl)methyl)-1-((1-hydroxycyclobutyl)carbonyl)pyrrolidin-3-yl)methanesulfonamide]
101 | CS(=O)(=O)N[C@H]1CCCN(C(=O)C2CC2)[C@H]1Cc1cccc(-c2ccccc2)c1 (relative stereo) [Example 93, N-(cis-2-(biphenyl-3-ylmethyl)-1-(cyclopropylcarbonyl)piperidin-3-yl)methanesulfonamide]
101 | CS(=O)(=O)N[C@H]1CCN(C(=O)C2(C(F)(F)F)CCC2)[C@H]1Cc1cccc(-c2cccc(F)c2)c1 [Example 309, N-((2S,3S)-2-((3′-fluorobiphenyl-3-yl)methyl)-1-((1-(trifluoromethyl)cyclobutyl)carbonyl)pyrrolidin-3-yl)methanesulfonamide]
60 | CC(=O)N1CCC[C@H](NS(C)(=O)=O)[C@@H]1Cc1cccc(-c2ccccc2)c1 (relative stereo) [Example 22, N-(cis-1-acetyl-2-(biphenyl-3-ylmethyl)piperidin-3-yl)methanesulfonamide]
101 | O=C(N1CCC1)N1CC[C@H](NS(=O)(=O)CF)[C@@H]1Cc1cccc(-c2cccc(F)c2)c1F [Example 467, N-{(2S,3S)-1-(azetidine-1-carbonyl)-2-[(2,3′-difluoro[1,1′-biphenyl]-3-yl)methyl]pyrrolidin-3-yl}-1-fluoro-methanesulfonamide]
